In patent publication US10882856B2 (BeiGene, Ltd., priority 2017, dated 2021) one finds IC50 and EC50 data, which are given here for 30 molecules.

Where a name gives a salt, the structure may show the parent alone. A value given as a limit tells only on which side of the number the result lay.

Assay [1] addresses T1, IDO1 (Homo sapiens, UniProt P14902). In words: IDO1 enzymatic assay. It counts as biochemical. Also on record: His tag (N); made in house; host or cells: E. coli. Conditions: read-out: Enzyme IC50 IDO1. Summed up: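 IC50 values reflect remaining IDO1 activity over increasing compound concentrations. The enzyme (50 nM, N-terminally His-tagged, purified from E. coli) was incubated for 1.5 hours at 24 °C with compound, 1.3 mM D-tryptophan, 5 mM L-ascorbic acid, methylene blue and 0.4 mg/mL catalase in 50 mM potassium phosphate pH 7.5 with 0.1% BSA. The slope of N'-formylkynurenine formation, read continuously at 321 nm for 1 hour, served as activity.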

In assay [2] the target is T1, IDO1. The experiment in a line: Hela cell-based IDO1 assay. Conditions: Hela cells. The method in brief:
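Kynurenine was measured at 480 nm in trichloroacetic acid-deproteinised supernatant after adding 2% 4-(dimethylamino)benzaldehyde. This supernatant came from HeLa cells seeded at 8000 per well in 96-well plates in phenol red-free DMEM with 10% FBS and, from 4 hours after seeding, exposed for 48 hours at 37 °C, 5% CO2 to DMSO-diluted compound dilutions, IFN-γ (final 100 ng/mL) and 0.4 mM L-Trp. The resulting data were fitted with a four-parameter logistic model in XLfit. Potency was taken from those fits.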

Assay [3] addresses T2, cellular TDO2 in HEK293-TDO2 cells (Homo sapiens, UniProt P48775).
T2 construct: expressed in transfected cells; host or cells: HEK293 (ATCC), stably transfected
In words: 293-TDO2 cell-based assay (Kyn colorimetric). Conditions: 48 hours of incubation. Summed up: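 HEK293 cells stably expressing TDO2 (10000/well, phenol red-free DMEM, 10% FBS) were dosed 4 h after plating and incubated 48 h at 37° C. Supernatant Kyn was measured after TCA precipitation by 4-(dimethylamino)benzaldehyde colour at 480 nm. IC50 came from four-parameter logistic fits.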

T1 sequence (P14902 whole entry): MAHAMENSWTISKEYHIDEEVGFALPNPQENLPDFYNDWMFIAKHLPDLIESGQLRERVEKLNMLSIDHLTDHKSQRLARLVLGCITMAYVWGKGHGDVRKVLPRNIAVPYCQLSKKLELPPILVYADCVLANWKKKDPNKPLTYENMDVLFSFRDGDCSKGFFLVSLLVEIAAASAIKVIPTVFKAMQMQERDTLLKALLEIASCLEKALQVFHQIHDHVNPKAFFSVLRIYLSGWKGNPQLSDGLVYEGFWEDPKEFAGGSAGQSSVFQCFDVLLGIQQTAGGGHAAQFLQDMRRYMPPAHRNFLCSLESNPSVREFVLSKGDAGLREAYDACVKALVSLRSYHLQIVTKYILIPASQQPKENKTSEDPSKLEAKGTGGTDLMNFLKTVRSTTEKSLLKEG
T2 sequence (P48775 whole entry): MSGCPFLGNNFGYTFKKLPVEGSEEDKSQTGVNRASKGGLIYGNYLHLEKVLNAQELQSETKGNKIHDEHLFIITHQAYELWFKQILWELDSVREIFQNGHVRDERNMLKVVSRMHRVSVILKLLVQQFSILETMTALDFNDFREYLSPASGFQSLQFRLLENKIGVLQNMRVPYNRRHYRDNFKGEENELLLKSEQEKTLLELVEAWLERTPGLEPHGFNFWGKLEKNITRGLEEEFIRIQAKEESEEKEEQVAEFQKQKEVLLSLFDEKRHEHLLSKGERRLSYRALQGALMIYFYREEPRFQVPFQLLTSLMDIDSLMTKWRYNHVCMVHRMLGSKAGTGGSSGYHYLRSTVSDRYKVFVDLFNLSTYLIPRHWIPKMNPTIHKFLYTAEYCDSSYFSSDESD

`COc1ccc([C@H]2CC[C@H](C(O)c3c(C4CC4)ccc4cncn34)CC2)cc1Cl` (single isomer, unassigned) [Example D148a, hydrochloride]: the IC50 (in general, the concentration at which inhibition is half-maximal) on IDO1 [1] amounted to 17 nM. Also, the EC50 (commonly the concentration giving half of the maximal effect) on IDO1 [2] is 80 nM; in assay [3], above 10000 nM.
In the same order, the values of `O[C@@H](c1c(C2CC2)ccc2cncn12)C1CCN(c2cccc(F)c2)CC1` [Example D172b] are 2700 nM, 5400 nM and above 10000 nM.
Taken in the same sequence, the figures for `OC(c1c(C2CC2)ccn2cncc12)C1CCN(c2cccnc2)CC1` (stereo not drawn) [Example C148, (7-cyclopropylimidazo[1,5-a]pyridin-8-yl)(1-(pyridin-3-yl)piperidin-4-yl)methanol] were 74 nM, 1300 nM and above 10000 nM.
Taken in the same sequence, the figures for `NC(=O)Nc1ccc([C@H]2CC[C@H]([C@H](O)c3c(C4CC4)ccc4cncn34)CC2)cc1` [Example D160, 1-(4-((1S,4r)-4-((S)-(6-cyclopropylimidazo[1,5-a]pyridin-5-yl)(hydroxy)methyl)cyclohexyl)phenyl)urea] were 15 nM, 128 nM and above 10000 nM.
In the case of `OC(c1c(C2CC2)ccn2cncc12)C1CCC(c2ccc(OC(F)(F)F)cc2)CC1` (racemic) [Example C105], the IC50 on IDO1 [1] is 210 nM. Further, the figures for the EC50 (on IDO1 [2]; in assay [3]) were 2010 nM and above 10000 nM, respectively.
Turning to `OC(c1c(C2CC2)ccn2cncc12)C1CCN(c2ccncc2)CC1` (stereo not drawn) [Example C147, (7-cyclopropylimidazo[1,5-a]pyridin-8-yl)(1-(pyridin-4-yl)piperidin-4-yl)methanol], the IC50 on IDO1 [1] amounted to 2300 nM. The EC50 (on IDO1 [2]; in assay [3]) was above 10000 nM in each case.
On to `OC(c1c(C2CC2)ccc2cncn12)C1CCN(c2ccc(F)cc2)CC1` (stereo not drawn) [Example D171, (6-cyclopropylimidazo[1,5-a]pyridin-5-yl)(1-(4-fluorophenyl)piperidin-4-yl)methanol], for which the IC50 on IDO1 [1] was found to be 22 nM. In addition, the EC50 on IDO1 [2] is 36 nM; in assay [3], above 10000 nM.
In the same order, the values of `O[C@@H](c1c(C2CC2)ccn2cncc12)[C@H]1CC[C@H](c2ccc(OC3COC3)cc2)CC1` (single isomer, unassigned) [Example C117b] are 1100 nM, above 10000 nM and above 10000 nM.
Taken in the same sequence, the figures for `OC(c1c(C2CC2)ccc2cncn12)C1CCN(c2ccc(Cl)c3ncccc23)CC1` (stereo not drawn) [Example D178, (1-(8-chloroquinolin-5-yl)piperidin-4-yl)(6-cyclopropylimidazo[1,5-a]pyridin-5-yl)methanol] were 24 nM, 40 nM and above 10000 nM.
For `OC(c1c(C2CC2)ccc2cncn12)C1CCC(c2ccc3ccccc3c2)CC1` (stereo not drawn) [Example D136, (6-cyclopropylimidazo[1,5-a]pyridin-5-yl)(4-(naphthalen-2-yl)cyclohexyl)methanol], on IDO1 [1], the IC50 worked out at 51 nM. Further, the EC50 at IDO1 [2] was 358 nM; in assay [3] it was above 10000 nM.
Regarding `COc1ccc(C2CCC(C(O)c3c(C4CC4)ccc4cncn34)CC2)c(F)c1` (stereo not drawn) [Example D146, (6-cyclopropylimidazo[1,5-a]pyridin-5-yl)(4-(2-fluoro-4-methoxyphenyl)cyclohexyl)methanol], the IC50 on IDO1 [1] was determined as 28 nM. For the same molecule, the EC50 was 210 nM on IDO1 [2] and above 10000 nM in assay [3].
For `CC(C)c1ccc2cncn2c1[C@H](O)[C@H]1CC[C@H](c2cccc(Cl)c2)CC1` (single isomer, unassigned) [Example D168b], the IC50 at IDO1 [1] is above 10000 nM. The EC50 at IDO1 [2] is 6470 nM; in assay [3] it was above 10000 nM.
As for `O[C@@H](c1c(C2CC2)ccc2cncn12)C1CCN(c2ccccc2)CC1` (single isomer, unassigned) [Example D170b], on IDO1 [1], the IC50 was found to be 8820 nM. Further, the EC50 on IDO1 [2] is 7940 nM; in assay [3], above 10000 nM.
On to `O[C@@H](c1c(C2CC2)ccn2cncc12)[C@H]1CC[C@H](c2ccc(F)c(Cl)c2)CC1` (single isomer, unassigned) [Example C132b], for which, on IDO1 [1], the IC50 stood at 2500 nM. Besides, the EC50 (at IDO1 [2]; in assay [3]) was above 10000 nM throughout.
For the molecule `OC(c1c(C2CC2)ccn2cncc12)C1CCN(c2ccc(F)cc2)CC1` (single isomer, unassigned) [Example C137a], the 50% inhibitory concentration (IC50) at IDO1 [1] amounted to 26 nM. In addition, the EC50 at IDO1 [2] is 74 nM; in assay [3] it was above 10000 nM.
Consider `OC(c1c(C2CC2)ccc2cncn12)C1CCN(c2cccc3ncncc23)CC1` (stereo not drawn) [Example D180, (6-cyclopropylimidazo[1,5-a]pyridin-5-yl)(1-(quinazolin-5-yl)piperidin-4-yl)methanol], for which, at IDO1 [1], the IC50 was 30 nM. Besides, the half-maximal effective concentration (EC50) at IDO1 [2] was 40 nM; in assay [3] it was above 10000 nM.
For the molecule `N#Cc1ccc([C@H]2CC[C@H](C(O)c3c(C4CC4)ccn4cncc34)CC2)cc1` (single isomer, unassigned) [Example C106b], the IC50 at IDO1 [1] is 2300 nM. For the same molecule, the concentration for a half-maximal effect (EC50) (at IDO1 [2]; in assay [3]) was above 10000 nM each time.
Regarding `OC(c1c(C2CC2)ccc2cncn12)C1CCC(c2ccc(F)cc2Cl)CC1` (stereo not drawn) [Example D130, (4-(2-chloro-4-fluorophenyl)cyclohexyl)(6-cyclopropylimidazo[1,5-a]pyridin-5-yl)methanol], the IC50 at IDO1 [1] was 50 nM. The results for the EC50 (on IDO1 [2]; in assay [3]) were 279 nM and above 10000 nM, respectively.
In the same order, the values of `O[C@@H](c1c(C2CC2)ccc2cncn12)[C@H]1CC[C@H](c2ccc(F)c(F)c2F)CC1` (single isomer, unassigned) [Example D145b] are above 10000 nM, 9490 nM and above 10000 nM.
Consider `COc1ccc(N2CCC(C(O)c3c(C4CC4)ccn4cncc34)CC2)cc1` (stereo not drawn) [Example C142, (7-cyclopropylimidazo[1,5-a]pyridin-8-yl)(1-(4-methoxyphenyl)piperidin-4-yl)methanol], for which the half-maximal inhibitory concentration (IC50) on IDO1 [1] amounted to 32 nM. Also, the EC50 was 267 nM on IDO1 [2] and above 10000 nM in assay [3].
Taken in the same sequence, the figures for `O[C@@H](c1c(C2CC2)ccc2cncn12)[C@H]1CC[C@H](c2ccc(OC(F)(F)F)cc2)CC1` (single isomer, unassigned) [Example D105b] were above 10000 nM, 3900 nM and above 10000 nM.
`OC(c1c(C2CC2)ccn2cncc12)C1CCC(c2ccnc3c(F)cccc23)CC1` (stereo not drawn) [Example C129, (7-cyclopropylimidazo[1,5-a]pyridin-8-yl)(4-(8-fluoroquinolin-4-yl)cyclohexyl)methanol]: the 50% inhibitory concentration (IC50) on IDO1 [1] worked out at 33 nM. For the same molecule, the EC50 was 51 nM at IDO1 [2] and above 10000 nM in assay [3].
In the same order, the values of `O[C@@H](c1c(C2CC2)ccc2cncn12)[C@H]1CC[C@H](c2ccccc2Cl)CC1` (single isomer, unassigned) [Example D117b] are above 10000 nM, 99 nM and above 10000 nM.
In the same order, the values of `OC(c1c(C2CC2)ccc2cncn12)C1CCC(c2cc(F)cc(F)c2)CC1` (stereo not drawn) [Example D144, (6-cyclopropylimidazo[1,5-a]pyridin-5-yl)(4-(3,5-difluorophenyl)cyclohexyl)methanol] are 42 nM, 96 nM and above 10000 nM.
On to `OCCn1cc(-c2ccc(N3CCC(C(O)c4c(C5CC5)ccc5cncn45)CC3)cc2)cn1` (stereo not drawn) [Example D177], for which the IC50 on IDO1 [1] came to 25 nM. Also, the EC50 on IDO1 [2] was 107 nM; in assay [3] it was above 10000 nM.
In the same order, the values of `OC(c1c(C2CC2)ccc2cncn12)C1CCC(c2ccc(Br)cc2)CC1` (stereo not drawn) [Example D118, (4-(4-bromophenyl)cyclohexyl)(6-cyclopropylimidazo[1,5-a]pyridin-5-yl)methanol] are 44 nM, 546 nM and above 10000 nM.
`O[C@@H](c1c(C2CC2)ccc2cncn12)[C@H]1CC[C@H](c2ccc(Cl)cc2F)CC1` [Example D131b, (R)-((1r,4R)-4-(4-chloro-2-fluorophenyl)cyclohexyl)(6-cyclopropylimidazo[1,5-a]pyridin-5-yl)methanol hydrochloride]: the IC50 at IDO1 [1] is above 10000 nM. Further, the figures for the EC50 (on IDO1 [2]; in assay [3]) were 6490 nM and above 10000 nM, respectively.
Take `CC(C)c1ccc2cncn2c1[C@H](O)[C@H]1CC[C@H](c2ccc(F)cc2)CC1` (single isomer, unassigned) [Example D166b]: at IDO1 [1], the half-maximal inhibitory concentration (IC50) was above 10000 nM. Moreover, the EC50 at IDO1 [2] is 5210 nM; in assay [3], above 10000 nM.
For the molecule `OC(c1c(C2CC2)ccn2cncc12)C1CCN(c2cccc(F)c2)CC1` (stereo not drawn) [Example C138, (7-cyclopropylimidazo[1,5-a]pyridin-8-yl)(1-(3-fluorophenyl)piperidin-4-yl)methanol], the IC50 at IDO1 [1] is 67 nM. Further, the EC50 is 149 nM at IDO1 [2] and above 10000 nM in assay [3].
For `O[C@H](c1cc(Cl)cc2cncn12)[C@H]1CC[C@H](c2ccc3ccccc3c2)CC1` (single isomer, unassigned) [Example E104a], the IC50 at IDO1 [1] was determined as 29 nM. For the same molecule, the 50% effective concentration (EC50) at IDO1 [2] was 3700 nM; in assay [3], above 10000 nM.
